Measured values reported in patent publication US10945989B2, “Perinatal treatment with a flavonoid agonist of the TrkB receptor for BDNF rescues neurogenesis and behavior in the Ts65Dn mouse model of DS” (ALMA MATER STUDIORUM—Universita' di Bologna, priority 2017, dated 2021).

What was measured:
Format in all cases: in vivo, mouse
[1] = system: proliferating cells in the SVZ; test: Prenatal treatment: BrdU-positive cells in the SVZ of P2 mice
Procedure: (§1) Conception was determined by examining the vaginal plug. […] After sacrifice, brain was excised and weighed.
(§2) One of 20 sections (n=8-10) from the beginning to the end of the hippocampal formation were subjected to double-fluorescence immunohistochemistry for BrdU and NeuN. Sections were incubated overnight at 4° C. with a primary antibody, rat monoclonal anti-BrdU antibody (AbD Serotec), diluted 1:100 in 0.1% Triton X-100 in PBS and either mouse monoclonal anti-NeuN (Millipore Bioscience Research Reagents) diluted 1:400 in 0.1% Triton X-100 in PBS. Sections were then washed in 0.1% Triton X-100 in PBS for 40 min and incubated for 2 h with a Cy3-conjugated anti-rat IgG (1:200; Jackson Immunoresearch) secondary fluorescent antibody for BrdU immunohistochemistry and FITC-conjugated anti-mouse IgG (1:200; Jackson Immunoresearch) for NeuN immunohistochemistry.
(§3) BrdU-positive cells were sampled in the caudal subventricular zone (SVZ) of the lateral ventricle overlying the dentate gyrus and from the subgranular zone (SGZ) of the dentate gyrus (FIG. 10A). The caudal SVZ is the region that stretches from the beginning to the end of the hippocampal formation (BC: 3.27-4.84 mm). Since different regions of the ventricular zone (VZ) and SVZ give origin to neurons destined to different telecephalic areas (Brazel et al., 2003), we evaluated the effects of treatment both in the dorsal and lateral part of the SVZ (FIG. 10B). For cell counting, an area was traced enclosing the whole SVZ and all cells in this area were counted. While at later life stages, neural progenitor cells are only present in the SGZ of the dentate gyrus, in P2 pups proliferating cells can be detected in the perspective molecular layer and hilus. Therefore, cells were counted within a manually-traced area enclosing the whole dentate gyrus (FIG. 10B). […] Quantification of BrdU-labeled nuclei was conducted in every 20th section. The total number of BrdU labeled cells in the SVZ and SGZ was estimated by multiplying the number counted in the sampled sections by the inverse of the section sampling fraction (ssf= 1/20).

[2] = system: synaptophysin (SYN); test: Western blot of hippocampal homogenates: synaptophysin
Procedure: Euploid and Ts65Dn mice received a daily subcutaneous injection (at 9-10 am) of 7,8-DHF (5.0 mg/kg in vehicle: PBS with 1% DMSO) or vehicle from postnatal day 3 (P3) to postnatal day 15. This timing was chosen because it corresponds to that previously used to test the effects of fluoxetine and other pharmacotherapies in the neonate Ts65Dn mouse (Bianchi et al., 2010b; Giacomini et al., 2015; Stagni et al., 2016). Mice that received 7,8-DHF will be called “treated mice” (treated euploid mice: n=25; treated Ts65Dn mice: n=15). Mice that received the vehicle will be called “untreated mice” (untreated euploid mice: n=35; untreated Ts65Dn mice: n=21). […] The brains were excised and cut along the midline. The left hemisphere of a group of mice was fixed by immersion in PFA 4% and frozen, and the left hemisphere of another group of mice was used for Golgi staining. […]
In homogenates of the hippocampal formation of P15 mice, total proteins were obtained as previously described (Trazzi et al., 2011) and the levels of the following proteins were evaluated: BDNF, TrkB full length (TrkB-FL), phosphorylated TrkB (p-TrkB), the truncated form 1 of the TrkB receptor (TrkB-T1), phosphorylated ERK1 (p-ERK1), phosphorylated ERK2 (p-ERK2), ERK1, ERK2, synaptophysin (SYN), GAPDH and α-Tubulin using the antibodies reported in Table 1. […]

[3] = system: proliferating cells in the SGZ; test: Prenatal treatment: BrdU-positive cells in the SGZ of P2 mice
Procedure: as §1, §2, §3

[4] = P2 Ts65Dn mice, treated E10-E20/21

O=c1cc(-c2ccccc2)oc2c(O)c(O)ccc12 [7,8-DHF, 7,8-dihydroxyflavone]
total number of BrdU-positive cells in the SVZ, treated Ts65Dn vs untreated euploid mice ([1]; P2, treated E10-E20/21): no differences in total number of BrdU-positive cells | total number of BrdU-positive cells in the SVZ ([1]; P2 Ts65Dn mice, dams 5 mg/kg s.c. E10-E20/21, untreated Ts65Dn approx. 22500, euploid approx. 32300): approximately 33900 | increase in cell number in the SVZ vs untreated Ts65Dn [1, 4]: +50% | SYN levels in the hippocampus ([2]; P15 Ts65Dn mice, became similar to untreated euploid mice): increased SYN levels | SYN levels in the hippocampus ([2]; P15 euploid mice, vs untreated counterparts): increase in SYN levels | total number of BrdU-positive cells in the SGZ, treated Ts65Dn vs untreated euploid mice ([3]; P2, treated E10-E20/21): no differences in total number of BrdU-positive cells | total number of BrdU-positive cells in the SGZ ([3]; P2 Ts65Dn mice, dams 5 mg/kg s.c. E10-E20/21, untreated Ts65Dn approx. 12850, euploid approx. 17500): approximately 16800 | increase in cell number in the SGZ vs untreated Ts65Dn [3, 4]: +30%
